For test [1], the target named is T1, A/M2 wt channel (Influenza A virus, UniProt P0DOF5). Type of test: cell-based.
Test [2] concerns wt influenza virus (A/Udorn/72). Type of test: cell-based.
Test [3] addresses T2, transmembrane domain of wt A/M2 protein (M2TM, residues 22–46) (Influenza A virus, UniProt P0DOF5).
T2 sequence (P0DOF5 22-46 limits assumed): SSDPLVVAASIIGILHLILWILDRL
Format: binding. The conditions noted are these: pH 7.4.

The target of test [4] is T1, A/M2 wt channel. The conditions noted are these: cited from earlier work.

Structures are written as SMILES.

T1 sequence (P0DOF5 whole entry): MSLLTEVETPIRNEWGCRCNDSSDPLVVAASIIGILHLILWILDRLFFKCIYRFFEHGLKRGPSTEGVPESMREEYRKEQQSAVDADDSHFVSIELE

Turning to `NC1CCC2(CCCCC2)CC1` [Compound 8, spiro[5.5]undecan-3-amine], the “voltage dependence of inhibition” value on A/M2 wt channel [1] was “voltage-independence”. The “reversibility of inhibition / washout rate” value on A/M2 wt channel [1] (pH 8.5) is recorded as “not significantly different from that of amantadine”.

Broadly, the Kd is the free concentration of one partner at which half of the binding sites on the other are occupied at equilibrium, for simple one-to-one binding. Read a low Kd as a tighter complex. One may read the IC50 as the point on the concentration scale where inhibition reaches its midpoint. On to `C1CCC2(CC1)CCN(C1=NCCN1)CC2` [BL-1743, 2-[3-azaspiro([5],[5])undecanol]-2-imidazoline], for which the “concentrations at which plaque formation was inhibited” value in test [2] is 50 to 100 µM. In test [3], this compound had a Kd of 194 µM. Moreover, on A/M2 wt channel [4], the “dissociation rate constant (κoff)” value is listed as 10^−3 s^−1; the “second-order rate constant (κon) for association and inhibition” value was 720 M⁻¹ s⁻¹. Further, at A/M2 wt channel [1], the “% remaining activity after application of 100 μM compound” value was 25.3±1.3% and the “voltage dependence of inhibition” value is recorded as “voltage-independence”. At A/M2 wt channel [1] (pH 5.5), this compound yielded an IC50 of 45.3 ± 3.92 µM. Further, the “reversibility of inhibition / washout rate” value on A/M2 wt channel [1] (pH 8.5) is given as “essentially fully reversible”. The activity at A/M2 wt channel [1] (read-out: AM2 channel activity after 100μM compound inhibition) came to 25%.

As to `NC12CC3CC(CC(C3)C1)C2` [Amantadine, amantadine], on A/M2 wt channel [4], the “dissociation rate constant (κoff)” value is 10^−4 s^−1. For the same compound, the “voltage dependence of inhibition” value on A/M2 wt channel [1] is reported as “voltage-independence”. Besides, the “reversal of inhibition in the time frame of 5 min” value at A/M2 wt channel [1] (pH 8.5) is recorded as “about 10%”.

Source of the values: PMC2794939 (Biochemistry, 2009).
